#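 Method: 48-hour compound exposure of cells in 96-well plates, five concentrations, linear interpolation of endpoints. At the TGI there is no net growth.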
# Legend:
# Assay in all cases: NCI-60 cell line screen, 48 h
# SW-620 colon = system: SW-620 colon
# KM20L2 colon = system: KM20L2 colon
# MALME-3M melanoma = system: MALME-3M melanoma
# HOP-92 NSCLC = system: HOP-92 NSCLC
# XF 498 CNS = system: XF 498 CNS
# NCI-H23 lung = system: NCI-H23 lung
# IGROV1 ovarian = system: IGROV1 ovarian
# HOP-62 NSCLC = system: HOP-62 NSCLC
# A549 NSCLC = system: A549 NSCLC
# OVCAR-3 ovarian = system: OVCAR-3 ovarian
# SK-MEL-28 melanoma = system: SK-MEL-28 melanoma
# HL-60(TB) leukemia = system: HL-60(TB) leukemia
# RXF-631 renal = system: RXF-631 renal
# DMS 114 small cell lung = system: DMS 114 small cell lung
# SF-268 CNS = system: SF-268 CNS
# UACC-62 melanoma = system: UACC-62 melanoma
# M19-MEL melanoma = system: M19-MEL melanoma
# DMS 273 small cell lung = system: DMS 273 small cell lung
# SN12C renal = system: SN12C renal
# LOX IMVI melanoma = system: LOX IMVI melanoma
# RXF 393 renal = system: RXF 393 renal
# CAKI-1 renal = system: CAKI-1 renal
# K-562 leukemia = system: K-562 leukemia
# SNB-19 CNS = system: SNB-19 CNS
# UO-31 renal = system: UO-31 renal
# LXFL 529 NSCLC = system: LXFL 529 NSCLC
# SF-295 CNS = system: SF-295 CNS
# SNB-78 CNS = system: SNB-78 CNS
# ACHN renal = system: ACHN renal
# HCT-15 colon = system: HCT-15 colon
# M14 melanoma = system: M14 melanoma
# HOP-18 NSCLC = system: HOP-18 NSCLC
# U251 CNS = system: U251 CNS
# HT29 colon = system: HT29 colon
# COLO 205 colon = system: COLO 205 colon
# OVCAR-4 ovarian = system: OVCAR-4 ovarian
# NCI-H460 lung = system: NCI-H460 lung
# SK-OV-3 ovarian = system: SK-OV-3 ovarian
# DLD-1 colon = system: DLD-1 colon
# OVCAR-8 ovarian = system: OVCAR-8 ovarian
# HCC-2998 colon = system: HCC-2998 colon
# TK-10 renal = system: TK-10 renal
# EKVX NSCLC = system: EKVX NSCLC
# 786-0 renal = system: 786-0 renal
# SF-539 CNS = system: SF-539 CNS
# RPMI-8226 leukemia = system: RPMI-8226 leukemia
# OVCAR-5 ovarian = system: OVCAR-5 ovarian
# KM12 colon = system: KM12 colon
# UACC-257 melanoma = system: UACC-257 melanoma
# NCI-H226 lung = system: NCI-H226 lung
# SK-MEL-5 melanoma = system: SK-MEL-5 melanoma
# SK-MEL-2 melanoma = system: SK-MEL-2 melanoma
# SNB-75 CNS = system: SNB-75 CNS
# HCT-116 colon = system: HCT-116 colon
# MOLT-4 leukemia = system: MOLT-4 leukemia
# NCI-H522 lung = system: NCI-H522 lung
# CCRF-CEM leukemia = system: CCRF-CEM leukemia
# A498 renal = system: A498 renal
structure (smiles),measurement,setting,value
Sc1ccccc1S,TGI,SW-620 colon,> 100 µM
same,TGI,KM20L2 colon,> 100 µM
same,TGI,MALME-3M melanoma,> 100 µM
same,TGI,HOP-92 NSCLC,> 100 µM
same,TGI,XF 498 CNS,> 100 µM
same,TGI,NCI-H23 lung,> 100 µM
same,TGI,IGROV1 ovarian,> 100 µM
same,TGI,HOP-62 NSCLC,> 100 µM
same,TGI,A549 NSCLC,> 100 µM
same,TGI,OVCAR-3 ovarian,> 100 µM
same,TGI,SK-MEL-28 melanoma,> 100 µM
same,TGI,HL-60(TB) leukemia,> 100 µM
same,TGI,RXF-631 renal,> 100 µM
same,TGI,DMS 114 small cell lung,> 100 µM
same,TGI,SF-268 CNS,> 100 µM
same,TGI,UACC-62 melanoma,> 100 µM
same,TGI,M19-MEL melanoma,> 100 µM
same,TGI,DMS 273 small cell lung,> 100 µM
same,TGI,SN12C renal,> 100 µM
same,TGI,LOX IMVI melanoma,> 100 µM
same,TGI,RXF 393 renal,> 100 µM
same,TGI,CAKI-1 renal,> 100 µM
same,TGI,K-562 leukemia,> 100 µM
same,TGI,SNB-19 CNS,> 100 µM
same,TGI,UO-31 renal,> 10 µM
same,TGI,LXFL 529 NSCLC,> 100 µM
same,TGI,SF-295 CNS,> 100 µM
same,TGI,SNB-78 CNS,> 100 µM
same,TGI,ACHN renal,> 100 µM
same,TGI,HCT-15 colon,> 100 µM
same,TGI,M14 melanoma,> 100 µM
same,TGI,HOP-18 NSCLC,> 100 µM
same,TGI,U251 CNS,> 100 µM
same,TGI,HT29 colon,> 100 µM
same,TGI,COLO 205 colon,> 100 µM
same,TGI,OVCAR-4 ovarian,> 100 µM
same,TGI,NCI-H460 lung,> 100 µM
same,TGI,SK-OV-3 ovarian,> 100 µM
same,TGI,DLD-1 colon,> 100 µM
same,TGI,OVCAR-8 ovarian,> 10 µM
same,TGI,HCC-2998 colon,> 100 µM
same,TGI,TK-10 renal,> 10 µM
same,TGI,EKVX NSCLC,> 10 µM
same,TGI,786-0 renal,> 100 µM
CN(C)c1[se]nc2c1c(=O)n(C)c(=O)n2C,TGI,SW-620 colon,> 100 µM
same,TGI,KM20L2 colon,> 100 µM
same,TGI,MALME-3M melanoma,> 100 µM
same,TGI,HOP-92 NSCLC,> 100 µM
same,TGI,XF 498 CNS,> 100 µM
same,TGI,NCI-H23 lung,> 100 µM
same,TGI,IGROV1 ovarian,> 100 µM
same,TGI,SF-539 CNS,> 100 µM
same,TGI,HOP-62 NSCLC,> 100 µM
same,TGI,A549 NSCLC,> 100 µM
same,TGI,OVCAR-3 ovarian,> 100 µM
same,TGI,RPMI-8226 leukemia,> 100 µM
same,TGI,SK-MEL-28 melanoma,> 100 µM
same,TGI,OVCAR-5 ovarian,> 100 µM
same,TGI,KM12 colon,> 100 µM
same,TGI,UACC-257 melanoma,> 100 µM
same,TGI,NCI-H226 lung,> 100 µM
same,TGI,HL-60(TB) leukemia,> 100 µM
same,TGI,SK-MEL-5 melanoma,> 100 µM
same,TGI,RXF-631 renal,> 100 µM
same,TGI,DMS 114 small cell lung,> 100 µM
same,TGI,SF-268 CNS,> 100 µM
same,TGI,SK-MEL-2 melanoma,> 100 µM
same,TGI,UACC-62 melanoma,> 100 µM
same,TGI,M19-MEL melanoma,> 100 µM
same,TGI,DMS 273 small cell lung,> 100 µM
same,TGI,SN12C renal,> 100 µM
same,TGI,LOX IMVI melanoma,> 100 µM
same,TGI,CAKI-1 renal,> 100 µM
same,TGI,K-562 leukemia,> 100 µM
same,TGI,SNB-19 CNS,> 100 µM
same,TGI,UO-31 renal,> 100 µM
same,TGI,LXFL 529 NSCLC,> 100 µM
same,TGI,SF-295 CNS,> 100 µM
same,TGI,SNB-78 CNS,> 100 µM
same,TGI,ACHN renal,> 100 µM
same,TGI,HCT-15 colon,> 100 µM
same,TGI,HOP-18 NSCLC,> 100 µM
same,TGI,U251 CNS,> 100 µM
same,TGI,HT29 colon,> 100 µM
same,TGI,COLO 205 colon,> 100 µM
same,TGI,OVCAR-4 ovarian,> 100 µM
same,TGI,NCI-H460 lung,> 100 µM
same,TGI,SNB-75 CNS,> 100 µM
same,TGI,HCT-116 colon,> 100 µM
same,TGI,MOLT-4 leukemia,> 100 µM
same,TGI,SK-OV-3 ovarian,> 100 µM
same,TGI,DLD-1 colon,> 100 µM
same,TGI,NCI-H522 lung,> 100 µM
same,TGI,CCRF-CEM leukemia,> 100 µM
same,TGI,A498 renal,> 100 µM
same,TGI,OVCAR-8 ovarian,> 100 µM
same,TGI,HCC-2998 colon,> 100 µM
same,TGI,TK-10 renal,> 100 µM
same,TGI,EKVX NSCLC,> 100 µM
same,TGI,786-0 renal,> 100 µM
CC1=C(C(=O)Nc2ccc([N+](=O)[O-])cc2)C(c2cccc([N+](=O)[O-])c2)C(C(=O)Nc2ccc([N+](=O)[O-])cc2)=C(C)N1,TGI,SW-620 colon,> 100 µM
same,TGI,KM20L2 colon,> 100 µM
same,TGI,MALME-3M melanoma,> 100 µM
same,TGI,HOP-92 NSCLC,39 µM
same,TGI,XF 498 CNS,41.3 µM
same,TGI,NCI-H23 lung,66.4 µM
same,TGI,IGROV1 ovarian,> 100 µM
same,TGI,SF-539 CNS,> 100 µM
same,TGI,HOP-62 NSCLC,> 100 µM
same,TGI,A549 NSCLC,> 100 µM
same,TGI,OVCAR-3 ovarian,> 100 µM
same,TGI,RPMI-8226 leukemia,> 100 µM
same,TGI,SK-MEL-28 melanoma,> 100 µM
same,TGI,OVCAR-5 ovarian,> 100 µM
same,TGI,KM12 colon,> 100 µM
same,TGI,UACC-257 melanoma,56.1 µM
same,TGI,NCI-H226 lung,> 100 µM
same,TGI,HL-60(TB) leukemia,> 100 µM
same,TGI,RXF-631 renal,> 100 µM
same,TGI,DMS 114 small cell lung,> 100 µM
same,TGI,SF-268 CNS,> 100 µM
same,TGI,SK-MEL-2 melanoma,> 100 µM
same,TGI,UACC-62 melanoma,> 100 µM
same,TGI,M19-MEL melanoma,> 100 µM
same,TGI,SN12C renal,> 100 µM
same,TGI,LOX IMVI melanoma,> 100 µM
same,TGI,RXF 393 renal,> 100 µM
same,TGI,K-562 leukemia,> 100 µM
same,TGI,SNB-19 CNS,> 100 µM
same,TGI,UO-31 renal,> 100 µM
same,TGI,LXFL 529 NSCLC,> 100 µM
same,TGI,SF-295 CNS,> 100 µM
same,TGI,SNB-78 CNS,> 100 µM
same,TGI,ACHN renal,> 100 µM
same,TGI,HCT-15 colon,> 100 µM
same,TGI,M14 melanoma,> 100 µM
same,TGI,HOP-18 NSCLC,> 100 µM
same,TGI,U251 CNS,> 100 µM
same,TGI,HT29 colon,> 100 µM
same,TGI,COLO 205 colon,> 100 µM
same,TGI,OVCAR-4 ovarian,> 100 µM
same,TGI,NCI-H460 lung,> 100 µM
same,TGI,SNB-75 CNS,> 100 µM
same,TGI,HCT-116 colon,> 100 µM
same,TGI,MOLT-4 leukemia,> 100 µM
same,TGI,SK-OV-3 ovarian,71.6 µM
same,TGI,DLD-1 colon,> 100 µM
same,TGI,NCI-H522 lung,> 100 µM
same,TGI,CCRF-CEM leukemia,> 100 µM
same,TGI,A498 renal,> 100 µM
same,TGI,OVCAR-8 ovarian,> 100 µM
same,TGI,HCC-2998 colon,> 100 µM
same,TGI,TK-10 renal,> 100 µM
same,TGI,EKVX NSCLC,> 100 µM
same,TGI,786-0 renal,> 100 µM
